Assay results published in paper PMC9959676 (Molecules, 2023).
Read-outs that look alike come from different tables or passages of the source.

Assays:
[1] = DPPH free radical scavenging assay; conditions: 1.0 mL sample 0.5 mg/mL + 2 mL DPPH 0.2 mg/mL, 30 min, 517 nm
Method: The DPPH assay was carried out to estimate the antioxidant potential among all the compounds [29]. Then, 2 mL (0.2 mg/mL in methyl alcohol) of DPPH was mixed with 1.0 mL (0.5 mg/mL in methyl alcohol) of the sample solution in a test tube. All the reaction tubes were covered with aluminum foil and kept aside for 30 min to complete the reaction. The activity was carried out in a dark room. […] A UV-visible spectrophotometer was employed to observe a reduction in the concentration of free radicals at 517 nm. The absorbance of the control (1.0 mL methanol + 2 mL DPPH solution) was also measured. All samples were evaluated in a triplicate manner, and the mean results were recorded. The standard antioxidant (ascorbic acid) was evaluated and set as a reference/standard. The percentage of inhibition (%) was calculated using the following formula in terms of scavenging activity(S):S (%) = [(Ab − Aa)/Ab] × 100(1) where Ab = Absorbance of control; and Aa = Absorbance of the test sample

thoracic aorta segments = assay: Inhibition of phenylephrine-induced contraction on isolated aorta rings; design: species or system male Wistar rats; conditions: compounds 10^−4 M in organ bath, phenylephrine 10^−6 M, n = 5; for inhibition at 100 µM: Rattus norvegicus, read-out: %ge inh. of Phenylephrine Cont. (±SEM)
Method: (§1) Cervical disruption was used to eliminate male Wistar rats weighing 200 g and 300 g. The thoracic aorta segments (3 mm to 5 mm) were slightly pressed and […]. The tissues were placed in an organ bath filled with 10 mL of Krebs-Henseleit solution and kept at 37 °C. Then 95% oxygen and 5% carbon dioxide were passed through the above-mentioned solution. To record organ responses to phenylephrine, (10^−6 M) (Sigma, St. Louis, MO, USA) simulated contractions; isometric transducers and Gemini recorders (Ugo Basile, Varese, Italy) were assembled. Aortic rings were recon traced with phenylephrine (10^−6 M) and subjected to acetylcholine (10^−6 M) for recording endothelium-dependent relaxations (EDR). All synthesized compounds along with the standard (valsartan) were mixed in DMSO; whereas synthesized derivatives of concentration 10^−4 M were added in an organ bath. In conscious rats, systolic blood pressure was recorded by applying the tail-cuff method. Wistar rats of 200 g to 250 g weight were selected and divided into groups of five individuals. The chemicals were injected intraperitoneally at a dosage of 80 mg/kg body weight. The tail-cuff and a piezoelectric pulse sensor were coupled to a blood pressure analyzer and were positioned at the base of the tail (May 9610, Ankara, Turkey).
(§2) All results were presented as the mean of SEM. (n = 5) and test compounds were employed for statistical significance determination.

urease = urease (Canavalia ensiformis, UniProt P07374); assay: biochemical; format: biochemical; conditions: for folds more urease inhibition than standard Thiourea: relative to Thiourea IC50
Sequence of urease (P07374 whole entry, looked up): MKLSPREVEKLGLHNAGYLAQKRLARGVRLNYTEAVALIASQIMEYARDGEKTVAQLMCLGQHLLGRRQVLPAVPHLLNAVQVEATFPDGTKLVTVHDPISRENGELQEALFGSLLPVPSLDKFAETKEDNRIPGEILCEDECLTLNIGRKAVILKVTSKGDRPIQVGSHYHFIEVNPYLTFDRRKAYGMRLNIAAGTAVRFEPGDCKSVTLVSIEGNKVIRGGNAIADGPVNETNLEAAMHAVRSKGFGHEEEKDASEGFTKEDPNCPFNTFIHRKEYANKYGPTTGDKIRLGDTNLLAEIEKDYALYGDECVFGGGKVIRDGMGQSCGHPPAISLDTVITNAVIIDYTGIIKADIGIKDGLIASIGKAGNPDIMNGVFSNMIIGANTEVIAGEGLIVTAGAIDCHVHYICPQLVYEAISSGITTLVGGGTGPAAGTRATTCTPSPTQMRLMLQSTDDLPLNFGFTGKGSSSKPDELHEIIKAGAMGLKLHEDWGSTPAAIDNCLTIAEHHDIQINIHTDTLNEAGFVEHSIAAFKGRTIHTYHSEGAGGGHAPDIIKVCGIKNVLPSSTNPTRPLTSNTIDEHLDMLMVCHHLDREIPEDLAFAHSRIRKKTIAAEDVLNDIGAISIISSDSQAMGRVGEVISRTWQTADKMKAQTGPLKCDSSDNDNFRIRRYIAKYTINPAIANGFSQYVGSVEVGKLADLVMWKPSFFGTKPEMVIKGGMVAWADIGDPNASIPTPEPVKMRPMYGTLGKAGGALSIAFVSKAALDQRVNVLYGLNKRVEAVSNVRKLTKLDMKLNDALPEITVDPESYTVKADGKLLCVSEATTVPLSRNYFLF
Method: The activity performed was an improved procedure of the Berthelot assay. […] For 5 min, the mixture was incubated at 37 °C. Each well in a 96-well plate received 40 µL of urea stock solution (20 mM); incubated for 10 min at 37 °C. Afterwards, 115 µL phenol hypochlorite (45 µL phenol + 70 µL alkali) per well was added. Furthermore, all the contents were incubated for 10 min at 37 °C. Absorbance at 625 nm was measured. Using the provided formula, the % of enzyme-inhibition and IC-50 values were computed Inhibition (%age) = [Control − test/100(control)] where Control = [Total enzyme activity minus inhibitor]. The test is the test compounds’ activity

Bacillus pumilus = assay: Antibacterial agar-well diffusion; format: cell-based; conditions: sample 100 mg/5 mL in DMSO; ceftriaxone sodium 20 mg/10 mL; 37 °C, 24 h; 6 mm wells
Method: (§3) After sterilizing the Mueller Hinton agar medium on plates in an autoclave and allowing it to cool to roughly 45 °C, a 100 µL standard inoculum was aseptically mixed, chilled till 37 °C, and 6 mm wells were formed in the inoculated plates. The volume of 100 μL (100 mg/5 mL in DMSO), ceftriaxone sodium (20 mg/10 mL in DMSO) as a positive control, and pure DMSO as a negative control; 30 μL of the sample solution was incorporated into these wells. These primed plates were incubated at 37 °C for 24 h prior to record inhibitory zones in millimeters.

Escherichia coli = assay: Antibacterial agar-well diffusion; format: cell-based; conditions: sample 100 mg/5 mL in DMSO; ceftriaxone sodium 20 mg/10 mL; 37 °C, 24 h; 6 mm wells
Method: as §3

Pseudomonas aeruginosa = assay: Antibacterial agar-well diffusion; format: cell-based; conditions: sample 100 mg/5 mL in DMSO; ceftriaxone sodium 20 mg/10 mL; 37 °C, 24 h; 6 mm wells
Method: as §3

Staphylococcus aureus = assay: Antibacterial agar-well diffusion; format: cell-based; conditions: sample 100 mg/5 mL in DMSO; ceftriaxone sodium 20 mg/10 mL; 37 °C, 24 h; 6 mm wells
Method: as §3

conscious rats = assay: Antihypertensive effect, systolic blood pressure by tail-cuff method in conscious rats; format: in vivo, Wistar rats; conditions: 80 mg/kg intraperitoneally, n = 5, Control 108.28 ± 6.87, DMSO 81.10 ± 3.21
Method: as §1, §2

[2] = urease, pH 7.0, 37 °C, read-out: IC50 ± SEM

| Compound | %Age Inhibition ± SEM [1] [%] | %ge inh. of Phenylephrine Cont. (±SEM) (thoracic aorta segments) [%] | folds more urease inhibition than standard Thiourea (urease) [folds] | IC50 (urease; [2]) [µM] | Zone of Inhibition Gram +ve Bacteria B.pumilus Mean ± SEM (Bacillus pumilus) [millimeters] | Zone of Inhibition Gram -Ve Bacteria E. coli Mean ± SEM (Escherichia coli) [millimeters] | Zone of Inhibition Gram -Ve Bacteria P. aeruginosa Mean ± SEM (Pseudomonas aeruginosa) [millimeters] | Zone of Inhibition Gram +ve Bacteria S. aureus Mean ± SEM (Staphylococcus aureus) [millimeters] | Mean of Systolic Blood Pressure ± SEM (conscious rats) | inhibition at 100 µM (thoracic aorta segments) [%] | IC50 (urease) [µM] |
| --- | --- | --- | --- | --- | --- | --- | --- | --- | --- | --- | --- |
| CCCCC(=O)N(Cc1ccc(-c2ccccc2-c2nn[nH]n2)cc1)C(C(=O)Oc1ccc(C=O)cc1OC)C(C)C (stereo not shown) [AV2, 4-formyl-2-methoxyphenyl 2(N-((2′-(2H-tetrazole-5-yl)-[1,1′-biphenyl]-4yl)methyl)pentanamido)-3-methyl butanoate] | 96.0 ± 0.49 | 76.4 ± 6.8 | 4 | 0.28 ± 0.15 | 12.26 ± 0.69 | 11.90 ± 0.26 | 09.33 ± 0.58 | 12.90 ± 0.81 | – | – | – |
| CCCCC(=O)N(Cc1ccc(-c2ccccc2-c2nn[nH]n2)cc1)C(C(=O)Oc1cccc2ccccc12)C(C)C (stereo not shown) [AV9, naphthalen-1-yl 2-(N-((2′-(2H-tetrazol-5-yl)-[1,1′-biphenyl]-4 yl)methyl)pentanamido)-3methyl butanoate] | 83.8 ± 0.64 | 68.3 ± 4.7 | – | 2.26 ± 1.04 | 12.76 ± 0.84 | 09.73 ± 0.23 | 10.90 ± 0.40 | 14.40 ± 0.37 | – | – | – |
| CCCCC(=O)N(Cc1ccc(-c2ccccc2-c2nn[nH]n2)cc1)C(C(=O)Oc1cc(C)ccc1C(C)C)C(C)C (stereo not shown) [AV8, 2-isopropyl-5-methylphenyl 2-(N-((2′-(2H-tetrazol-5yl)-[1, 1′-biphenyl]-4 yl)methyl)pentanamido)-3methyl butanoate] | 95.3 ± 0.55 | 71.6 ± 6.5 | 3 | – | 12.6 ± 0.60 | 11.21 ± 0.41 | 12.23 ± 0.27 | 12.66 ± 1.06 | 71.56 ± 4.32 | – | – |
| CCCCC(=O)N(Cc1ccc(-c2ccccc2-c2nnn[nH]2)cc1)C(C(=O)Oc1ccc(N)cc1)C(C)C (stereo not shown) [AV4, 4-aminophenyl 2-(N-((2′-(2H-tetrazol-5yl) -[1,1′-biphenyl]-4yl)methyl)pentanamido)-3methyl butanoate] | – | – | – | – | 10.46 ± 0.67 | 10.63 ± 0.40 | 10.31 ± 0.47 | 10.16 ± 0.17 | 79.56 ± 2.78 | 69.4 ± 5.4 | 3.19 ± 0.95 |
| CCCCC(=O)N(Cc1ccc(-c2ccccc2-c2nn[nH]n2)cc1)C(C(=O)Oc1ccccc1C(=O)O)C(C)C (stereo not shown) [AV11, 2-((2-(N-((2′-(2H-tetrazole-5-yl)-[1,1′-biphenyl]-4yl)methyl)pentanamido)-3-methylbutanoyl)oxy) benzoic acid] | 95.6 ± 0.54 | – | – | – | 10.66 ± 0.52 | 10.01 ± 0.55 | 11.46 ± 0.53 | 12.53 ± 0.68 | 72.71 ± 3.21 | 70.8 ± 7.7 | 2.19 ± 0.17 |
| CO/N=C(\C(=O)N[C@@H]1C(=O)N2C(C(=O)O)=C(CSc3nc(=O)c(=O)[nH]n3C)CS[C@H]12)c1csc(N)n1 [Ceftriaxone, ceftriaxone sodium, reference compound] | – | – | – | – | 22.13 ± 0.14 | 21.90 ± 0.18 | 23.33 ± 0.43 | 24.60 ± 0.51 | – | – | – |
| CCCCC(=O)N(Cc1ccc(-c2ccccc2-c2nn[nH]n2)cc1)C(C(=O)Oc1ccc(Cl)cc1Cl)C(C)C (stereo not shown) [AV5, 2,4-dichlorophenyl 2-(N-((2′-(2H-tetrazol-5yl)-[1,1′-biphenyl]-4 yl)methyl)pentanamido)-3methyl butanoate] | 73.1 ± 0.49 | 66.2 ± 4.2 | 3 | 1.29 ± 0.12 | 11.23 ± 0.61 | 11.36 ± 0.63 | 09.36 ± 0.85 | 13.50 ± 0.50 | 81.92 ± 5.21 | – | – |
| CCCCC(=O)N(Cc1ccc(-c2ccccc2-c2nn[nH]n2)cc1)C(C(=O)Oc1ccc(CC(N)C(=O)O)cc1)C(C)C (stereo not shown) [AV7, 3-(4-((2-(N-((2′-(2H-tetrazol-5yl)-[1,1′-biphenyl]-4 yl)methyl)pentanamido)-3methylbutanoyl)oxy)phenyl)-2amino-propanoic acid] | – | – | – | – | 11.13 ± 0.80 | 10.96 ± 0.18 | 10.76 ± 0.53 | 12.10 ± 0.37 | 85.61 ± 3.32 | 62.4 ± 2.7 | 8.59 ± 1.12 |
| O=C1O[C@H]([C@@H](O)CO)C(O)=C1O [Ascorbic acid, reference compound] | 96.4 ± 0.52 | – | – | – | – | – | – | – | – | – | – |
| CCCCC(=O)N(Cc1ccc(-c2ccccc2-c2nn[nH]n2)cc1)C(C(=O)Oc1ccc2ccccc2c1)C(C)C (stereo not shown) [AV10, naphthalen-2-yl 2-(N-((2′-(2H-tetrazol-5-yl)-[1,1′-biphenyl]-4 yl)methyl)pentanamido)-3methyl butanoate] | 94.4 ± 0.52 | 69.8 ± 6.7 | – | 2.05 ± 1.05 | 10.30 ± 0.21 | 10.40 ± 0.56 | 12.63 ± 0.63 | 12.13 ± 0.37 | 75.82 ± 4.12 | – | – |
| CCCCC(=O)N(Cc1ccc(-c2ccccc2-c2nn[nH]n2)cc1)C(C(=O)Oc1ccc(C=O)cc1)C(C)C (stereo not shown) [AV6, 4-formylphenyl2-(N-((2′-(2H-tetrazol-5-yl)-[1, 1′-biphenyl]-4yl)methyl)pentanamido)-3methyl butanoate] | 76.3 ± 0.46 | 67.4 ± 5.1 | – | 2.13 ± 0.97 | 11.76 ± 1.06 | 09.73 ± 0.44 | 10.73 ± 0.28 | 12.86 ± 0.72 | 81.21 ± 3.21 | – | – |
| NC(N)=S [Standard Thiourea, Thiourea, reference compound] | – | – | – | 4.24 ± 0.13 | – | – | – | – | – | – | – |
